Test results from patent US20210346279A1, “COMPOSITIONS COMPRISING TAPINAROF FOR THE TREATMENT OF PRURITIS” (Sol-Gel Technologies Ltd., priority 2020, published 2021).

System: C57/b16 mice
Test: acetone-ether-water (AEW) induced pruritus in a mouse model, spontaneous scratching recorded for 60 min
Assay type: in vivo
Description: The objective of this study was to examine the efficacy of topical formulations of Tapinarof in the strength of 0.5%, 1% and 2% as a treatment in acetone-ether-water (AEW) induced pruritus in a mouse model.
The model of inducing itching sensation was done by treating C57/b16 mice with AEW as was conducted in other studies in the past.
The mice were shaved 24 h prior to study to expose the skin. For 5 days, twice a day (at least 3-4 hours apart), mice were applied acetone and ether (mixed at 1:1 ratio) on the right cheek for 30 seconds, and immediately afterwards applied on cheek water for 30 seconds.
Day 1-3: AEW was treated twice (at least 3-4 hours apart), AE 30s, Water 30s.
Day 4-5: AEW was treated twice (at least 3-4 hours apart), AE 30s, Water 30s, topical administration of vehicle, tapinarof 0.5%, tapinarof 1%, tapinarof 2% (−20 h before evaluation) and randomization.
Day 5: AEW was treated once, topical administration of vehicle, tapinarof 0.5%, tapinarof 1%, and tapinarof 2% (−2 h before evaluation), positive control dosing (−30 min), video record (evaluation), animal weighing, sacrificing, plasma collection and skin sample collection.
Immediately after AEW application on day 5, the mice were put into acrylic chambers and behavior was recorded for 60 min using a video camera under unmanned conditions to assess spontaneous scratching. Videos were manually scored for time spent spontaneously scratching the affected cheek. Scratching is defined as an episode in which the mouse lifted its paw and scratched continuously for any length of time until the paw returned to the floor. Only scratches of the affected cheek with their hind paws were counted. Other scratching behaviors were disregarded. The number of scratches was summarized for each animal and the average number per group was calculated. In addition, the scratching time (seconds) was also evaluated, and the average of scratching time was calculated. Data are expressed as the mean±S.E.M. statistically significant differences between two groups were evaluated using paired or non-paired Student's t-test as required.

## CC(C)c1c(O)cc(/C=C/c2ccccc2)cc1O [tapinarof]
Topical formulation 0.5% w/w
  effect on scratching compared with the positive control: comparable to the positive control
Topical formulation 0.5% w/w, applied -20 h and -2 h before evaluation
  effect over the vehicle (scratching sessions and periods): ~40%
Topical formulation 1% w/w (percent increased twice versus 0.5%)
  effect on scratching sessions and periods: did not reduce the scratching sessions and periods
Topical formulation 2% w/w (percent increased four times versus 0.5%)
  effect on scratching sessions and periods: did not reduce the scratching sessions and periods
